Measured values reported in PMC4414920 (European journal of pharmaceutical sciences : official …, 2015).
Entries after “also recorded” stand apart in the source; their conditions may differ. Where two headings read alike, the source gives them in different places.

How the values were obtained:
[1] = dogs; ref Parton et al., 2000; cited from earlier work
[2] = test system: P450 2C19; conditions: 50 mg/day for 14 days; in vivo mephenytoin oxidation; ref Chen et al., 2003; cited from earlier work
[3] = test system: human liver microsomes; format: in vitro ADME
[4] = test system: recombinant human P450s 2C8, 2C9, 2C19, 2D6, 2E1, and 3A4; conditions: recombinant enzyme
[5] = cats; ref Parton et al., 2000; cited from earlier work
[6] = various animals; ref Trnavsky and Zachar, 1975; cited from earlier work
[7] = humans; ref Trnavsky and Zachar, 1975; cited from earlier work
[8] = test system: human liver microsomes; format: in vitro ADME; conditions: 100 μM desferrioxamine, Chelex 100-treated buffers, 0.5 nmol microsomal P450, 30 minutes
[9] = humans; ref Hutt et al., 1986; cited from earlier work
[10] = fluorescence detection, aspirin after deacetylation

CC(=O)Oc1ccccc1C(=O)O [Aspirin, acetylsalicylic acid]
half-life [1]: 7.5 h
effect on P450 2C19 [2]: increase
product formation (2,3-DHBA or 2,5-DHBA) in the absence of NADPH [3]: No product formation
maximum rate of 5-hydroxylation compared with salicylic acid ([3]; data not shown): approximately five times lower
2,5-DHBA formation with NADPH [3, 10]: detected
concentrations of the products with recombinant P450s [4]: too low to quantitate
half-life [5]: 22 h
half-life [6]: 1 to 38 h
half-life [7]: ~ 6 h

CC(=O)N(O)CCCCCNC(=O)CCC(=O)N(O)CCCCCNC(=O)CCC(=O)N(O)CCCCCN [desferrioxamine]
effect on formation of 2,3- and 2,5-DHBA [8]: did not inhibit but instead increased; also recorded: no inhibition

O=C(O)c1ccccc1O [salicylic acid]
product formation (2,3-DHBA or 2,5-DHBA) in the absence of NADPH [3]: not detected
2,3-DHBA formation with NADPH [3, 10]: detected
2,5-DHBA formation with NADPH [3, 10]: detected
directly excreted [9]: 1–31%

O=C(O)CNC(=O)c1ccccc1O [salicyluric acid]
share of the products of salicylic acid metabolism [9]: 20–65%
